Data: patent US20150004697A1, “METHOD FOR PRODUCING MULTIPOLAR CELL” (TOAGOSEI CO., LTD., priority 2011, published 2015)

How the values were obtained:
Format in all cases: cell-based
HeLa cell line (HeLa S3) [1] = assay: Multipolarity-inducing activity assay 1 (cells synchronized in G1 phase by double thymidine block); conditions: peptide 10 μM, 6 hours of incubation; for Number of multipolar cells: HeLa S3 synchronized in G1 phase, count among the M-phase cells observed
Procedure: Some of the sample peptides obtained in Example 1 were tested for multipolarity-inducing activity against target cultured tumor cells. Details of the assay are as described below.
As the tumor cells tested, a HeLa cell line (HeLa S3) was used. The cell line was cultured beforehand in a DMEM medium (i.e. Dulbecco MEM medium (DMEM medium, a Gibco product) containing 10% fetal bovine serum (FBS, a Gibco product), 2 mM of L-glutamine, 50 unit/mL of penicillin, and 50 μg/mL of streptomycin), and seeded at about 3×10^4 cells per well in an 8-well slide glass. Thymidine was added to the culture medium to a final concentration of 2.5 mM. Incubation was carried out at 37° C. under 5% CO2 for 16 hours. The culture medium was exchanged to remove thymidine and incubation was carried out for 8 more hours. Subsequently, thymidine was added again to a final concentration of 2.5 mM and incubation was carried out for 16 hours.
By such double thymidine block, the cells being cultured were synchronized in the G1 phase of the cell cycle. After such synchronization treatment, the culture medium was exchanged to remove thymidine and incubation was carried out for 2 more hours. Subsequently, one of the sample peptides was added to each well. In this example, one of Samples 1, 4, 8, 9, 12 and 14 was added to a peptide concentration in the well of 10 μM.
After a sample peptide was added as described above, the 8-well slid glass was incubated under the aforementioned conditions for 6 hours.
After 6 hours of incubation, the presence of multipolarity was observed by immunofluorescence under fluorescence microscope. In particular, after 6 hours of incubation following the addition of a sample peptide, the cultured cells were subjected to nuclear staining with DAPI (4′,6-diamidino-2-phenylindole), and using α-tubulin as a marker for spindles, the cells were tested for the presence of tubulin (i.e., the presence of spindles) by immunofluorescence with an anti-tubulin antibody (primary antibody) to identify the tubulin and a fluorescent dye (ALEXA FLUOR(registered trademark) 555)-labeled secondary antibody to identify the primary antibody.

HeLa cell line (HeLa S3) [2] = assay: Multipolarity-inducing activity assay 2 (cells synchronized in G2 phase (or M phase) by nocodazole); conditions: for Multipolar level (%): peptide 10 μM for 4 hours with nocodazole, then 2 hours without, % of M-phase cells; for Multipolar level (%) / Number of multipolar cells: HeLa S3 synchronized in G2 phase (M phase); for Number of multipolar cells / fluorescence microscope observation of centrosomes and multipolar spindles: peptide 10 μM; for Number of multipolar cells: count among 75 M-phase cells; for fluorescence microscope observation of centrosomes and multipolar spindles: HeLa synchronized in G2 phase (or M phase) by nocodazole, DAPI and anti-tubulin antibody
Procedure: The same sample peptides as those used in Example 2 above were used and tested for multipolarity-inducing activity against cultured tumor cells synchronized in the G2 phase (or M phase). Details of the assay are as described below.
As the tumor cells tested, a HeLa cell line (HeLa S3) was used. The cell line was cultured under the same conditions as Example 2 and seeded at about 3×10^4 cells per well in an 8-well slide glass. Thymidine was added to the culture medium to a final concentration of 2.5 mM. Incubation was carried out at 37° C. under 5% CO2 for 18 hours. The culture medium was exchanged to remove thymidine and incubation was carried out for 6 more hours. Subsequently, nocodazole was added to a final concentration of 0.1 μg/mL and incubation was carried out for 16 hours. By such addition of nocodazole, the cells being cultured were synchronized in the G2 phase (M phase) of the cell cycle.
After the 16 hours of incubation, without exchanging the culture medium (i.e. with nocodazole being contained), one of the sample peptides was added to each well to a peptide concentration in the well of 10 μM and incubation was carried out for 4 hours. Subsequently, the culture medium was exchanged and incubation was continued for 2 more hours without nocodazole or the sample peptide.
After the 2 hours of incubation, in the same manner as Example 2, the presence of multipolarity was observed by immunofluorescence under fluorescence microscope.

[3] = system: human alveolar basal epithelial adenocarcinoma cells, A549; assay: Multipolarity-inducing activity assay 3 (A549 cells synchronized in G2 phase (or M phase)); conditions: peptide 10 μM; for Multipolar level (%): 100 M-phase cells; for fluorescence microscope observation of centrosomes and multipolar spindles: DAPI, anti-tubulin and anti-centrin antibody
Procedure: Some of the sample peptides obtained in Example 1 were tested for multipolarity-inducing activity against target cultured tumor cells. Details of the assay are as described below. As the tumor cells tested, cells forming a […] (human alveolar basal epithelial adenocarcinoma cells, A549) were used. The cell line was cultured in the same manner as Example 2 described above. The resulting cultured tumor cells were synchronized in the G2 phase (or M phase) in the same manner as Example 3 described above. Similarly to Examples 2 and 3 described above (although the number of M-phase cells was 100), the presence of multipolarity was observed by immunofluorescence under fluorescence microscope. In addition, using centrin-2 as a marker for centrosomes (centrioles), the cells were tested for the presence of centrin-2 (i.e. the presence of centrosomes) by immunofluorescence with an anti-centrin-2 antibody (primary antibody) to identify the centrin-2 and a fluorescent dye-labeled secondary antibody to identify the primary antibody.

## CGHRPYQYC [Sample 4]
HeLa cell line (HeLa S3) [1]
  Number of multipolar cells: 6
HeLa cell line (HeLa S3) [2]
  Multipolar level (%): 62.7%
  Number of multipolar cells: 47
[3]
  Multipolar level (%): 36%

## CPRPPSLEC [Sample 9]
HeLa cell line (HeLa S3) [1]
  Number of multipolar cells: 19
HeLa cell line (HeLa S3) [2]
  Multipolar level (%): 73.3%
  Number of multipolar cells: 55
  fluorescence microscope observation of centrosomes and multipolar spindles: 3 or more centrosomes formed in many cells and a cell with a particularly high degree of multipolarity

## CSSATGKSC [Sample 1]
HeLa cell line (HeLa S3) [1]; HeLa S3 synchronized in G1 phase (double thymidine block), % multipolar cells relative to M-phase cells
  Multipolar level (%): 8.3%
HeLa cell line (HeLa S3) [1]
  Number of multipolar cells: 7
HeLa cell line (HeLa S3) [2]
  Multipolar level (%): 62.7%
  Number of multipolar cells: 47

## CHILHAQAC [Sample 8]
HeLa cell line (HeLa S3) [1]
  Number of multipolar cells: 11
HeLa cell line (HeLa S3) [2]
  Multipolar level (%): 68.0%
  Number of multipolar cells: 51
[3]
  Multipolar level (%): 36%

## CLTKSYTSC [Sample 12]
HeLa cell line (HeLa S3) [1]
  Number of multipolar cells: 13
HeLa cell line (HeLa S3) [2]
  Multipolar level (%): 64.0%
  Number of multipolar cells: 48
  fluorescence microscope observation of centrosomes and multipolar spindles: 3 or more centrosomes formed in many cells

## CLAPSPSKC [Sample 2]
[3]
  Multipolar level (%): 38%

## CTLNSHSNC [Sample 6]
[3]
  Multipolar level (%): 30%
  fluorescence microscope observation of centrosomes and multipolar spindles: 3 or more (typically 4 or more, e.g. 8 or more) centrosomes formed in many cells

## CEISAKRTC [Sample 7]
[3]
  Multipolar level (%): 36%

## CTGHWASEC [Sample 10]
[3]
  Multipolar level (%): 31%

## CSYEKRPMC [Sample 11]
[3]
  fluorescence microscope observation of centrosomes and multipolar spindles: 3 or more (typically 4 or more, e.g. 8 or more) centrosomes formed in many cells

## CLAPSPSKCKKRFLRKNDRKKR (CLAPSPSKCKKRTLRKNDRKKR) [Sample 14]
HeLa cell line (HeLa S3) [1]
  Number of multipolar cells: 10
HeLa cell line (HeLa S3) [2]
  Multipolar level (%): 61.3%
  Number of multipolar cells: 46
[3]
  Multipolar level (%): 38%
